The target of data set [1] is T1, recombinant HLA-DQ8 protein (Homo sapiens, UniProt P01909+P01920).
T1 construct: contained the extracellular portion of the DQA1*0301 α chain fused to the coiled-coil region of the basic leucine zipper domain of Fos; contained the extracellular portion of the DQB1*0302 β chain fused to the coiled-coil region of the basic leucine zipper domain of JunB; Fos leucine zipper (coiled-coil region) (C); TEV protease site (internal); His6; JunB leucine zipper (coiled-coil region) (C); FLAG; host or cells: baculovirus system
Description: DELFIA immunoassay: inhibition of biotinylated InsB:9-23 binding to recombinant HLA-DQ8. The source says:
HLA-DQ8 protein was produced using the baculovirus system. Two constructs were designed for both the α and the β chains of HLA-DQ8. The β chain construct contained the extracellular portion of the DQB1*0302 β chain fused to the coiled-coil region of the basic leucine zipper domain of JunB, and the α chain construct contained the extracellular portion of the DQA1*0301 α chain fused to the coiled-coil region of the basic leucine zipper domain of Fos. […] A tobacco etch virus protease cutting site was introduced in each chain to allow removal of the dimerization motif. The JunB and Fos dimerization motifs were added in order to allow the α and β chains to dimerize and form the final HLA-DQ8 protein (FIG. 12A). These constructs were used to produce the HLA-DQ8 protein in a baculovirus system using the Life Technologies Baculovirus protein production custom services (Carlsbad, CA).
D-peptides were produced by Fisher Scientific (Hanover Park, IL) in dry form and dissolved in PBS. All D-peptides were screened at a concentration of 10 μM for their ability to bind to the HLA-DQ8 pocket and block it from binding the InsB:9-23 peptide using a unique immunoassay (23). […] After washing 4 times, DELFIA Europium-labeled streptavidin (PerkinElmer) diluted in DELFIA assay buffer (PerkinElmer) was added for 30 minutes and shaken at slow speed at room temperature. Since the InsB:9-23 peptide was biotinylated the complex HLA-DQ8-InsB:9-23 peptide could be detected using the Europium-labeled streptavidin. After washing for 6 times, DELFIA Enhancement Solution was added for 1 hour or until the optimal signal was reached. Time-resolved fluorescence was measured using the BMG reader (BMG Labtech, Cary, NC). The experiment was performed in triplicate. As a negative control biotinylated InsB:9-23 peptide that was not pre-incubated with HLA-DQ8 was added to the nickel coated plates.
Immunoassay was performed as described above.

Data set [2] deals with T2, HLA-DQ8 expressed on BSM cells (Homo sapiens, UniProt P01909+P01920, F237L).
T2 construct: BSM cells that express HLA-DQ8 on their surface; host or cells: BSM cells (B-cell line homozygous for HLA-DQ8)
T2 sequence (P01920 33-261 A45G/Y58L/E77G/D89A/H199R/T217I, other chains not shown): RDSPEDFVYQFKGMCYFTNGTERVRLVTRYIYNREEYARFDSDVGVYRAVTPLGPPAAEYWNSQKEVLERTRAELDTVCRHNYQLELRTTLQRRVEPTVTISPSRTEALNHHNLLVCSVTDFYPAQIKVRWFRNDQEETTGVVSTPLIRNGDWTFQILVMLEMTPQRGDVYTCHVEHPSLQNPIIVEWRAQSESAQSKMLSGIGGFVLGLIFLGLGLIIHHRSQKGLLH
Nature of the data set: Flow cytometric analysis of InsB:9-23 peptide binding to BSM cells. The format is cell-based. As to conditions: 10 μM peptide; flow cytometry. Background: A flow cytometer gives signals particle by particle.
Description: N-terminal biotinylated peptide InsB:9-23 (or gliadin) were used to test for binding to BSM cells that express HLA-DQ8 on their surface. APC-streptavidin (BD Biosciences, Franklin Lakes, NJ) were used to detect the biotinylated peptides. […] After 24 hours incubation, cells were stained with PE-mouse anti-human HLA-DQ8 (BD Biosciences) and APC-streptavidin to detect the percent binding of the peptide to BSM cells with or without D-peptides. Percent binding was analyzed by flow cytometry.

In data set [3] the test system is lymphocytes isolated from SJL-DQ8 mice immunized with GAD65. Nature of the data set: Ex vivo T-cell activation to GAD65 peptide, lymphocytes of GAD65-immunized SJL-DQ8 mice. The format is cell-based, mouse. As to conditions: all peptides at 20 μg/ml; 48 hours. How it is done: The mouse model used in this experiment was SJL-DQ8 mice. When immunized with different type 1 diabetes associated peptides, they developed strong T-cell responses to these peptides. In the ex vivo model, lymphocytes were taken from the spleen of these mice after immunization with an Insulin or GAD65 peptide. They were then stimulated with the peptide used for immunizations and the tested D-peptide was added to see if it blocked T-cell stimulation as measured by IL-2 and interferon γ (IFNγ) production (FIGS. 18 and 19).
The cells were treated with medium or GAD65 (with or without D-peptides), all peptides at 20 μg/ml. Supernatants from stimulated lymphocytes were collected 48 hours after stimulation and stored at −80° C. until the Luminex assay was performed. The Milliplex mouse cytokines/chemokines magnetic panel (EMD Millipore Corporation, Billerica, MA) and a Luminex 200 with xPONENT software (Luminex, Austin, Texas) were used to assay the cytokines following the manufacturer's instructions.

The nature of data set [4]: Pharmacokinetics of RI-CT in male CD-1 mice. The settings on record: mouse, in vivo. How it is done:
30 μL of each STD, QC sample and matrix for blanks was added to separate wells of a 96 well plate. 800 μL of water:MeOH (95:5, v/v) was added to the STDs, QCs and blanks. For study samples, 400 μL of water:MeOH (95:5, v/v) was added to each. Mouse whole blood samples were diluted 1:2 with 0.1% formic acid in an aqueous 25 mM EDTA solution when samples were collected; consequently, there was an initial dilution factor of 3. Additionally, 400 μL of water:MeOH (95:5, v/v) was added to each diluted sample. To all samples, 20 μL of internal standard (200 ng/mL tolbutamide) solution in water was added. The samples were vortexed vigorously for 5 minutes and then loaded onto a pre-conditioned Oasis HLB 96-well SPE plate. The Oasis HLB 96-well SPE plate was conditioned with 1 mL of methanol and then rinsed with 1 mL of water before the samples were loaded. Once loaded onto the Oasis HLB 96-well SPE plate, residual solution was removed by vacuum. The samples were eluted into a clean 96-well plate with 800 μL of ACN: 0.1% aqueous formic acid (70:30, v/v). The samples were evaporated to dryness under nitrogen at ambient temperature using a TurboVap 96 Concentration Workstation (Caliper Life Sciences). The residues were reconstituted in 150 μL of ACN: 0.1% aqueous formic acid (25:75, v/v) and 10 μL of 0.1 M TCEP. The samples were vortexed for approximately 10 minutes and then aliquots were injected for LC-MS/MS analysis.
• LC System: System #731 • HPLC Pump: Shimadzu LC-30AD • Autosampler: Shimadzu SIL-30AC MP HPLC Conditions: • Mobile Phase A=0.1% Aqueous Formic Acid • Mobile Phase B=0.1% Formic Acid in ACN • Column Temperature=Ambient • Injection Volume=8 μL • Column=ACE C8, 2.1×50 mm, 5 μm • Flow rate=0.6 mL/min • MS/MS System: System #730 • SCIEX API 5500 Triple Quad (S/N 213451604) MS Conditions: • Scan Type=MRM • Polarity=Positive • Ion Source=ESI • CAD=10 • CUR=20 • GS1/GS2=50/50 • IS=2500 • TEM=550

The results in this text go back to patent US12552854B2, “Peptides that block presentation of antigenic islet peptides by HLA-DQ8 and methods for treating type-1 diabetes” (Icahn School of Medicine at Mount Sinai, priority 2019, dated 2026).

In general, clearance refers to a measure of how efficiently the substance is removed, as volume per time. Low values mean inefficient removal, high ones efficient removal. For orientation: half-life means the time needed for the level to fall by half in the phase considered. As usually defined, the AUC(0-inf) is total exposure, with the tail of the curve extrapolated. Broadly, the Cmax is the peak of the concentration-time curve. In general, Tmax refers to the time from dosing to the highest level. By bioavailability is commonly meant dose-corrected exposure relative to a reference, in per cent. The low end stands for little systemic uptake, the high end for much systemic uptake.

For `CC(C)C[C@@H](NC(=O)[C@@H](Cc1ccc(O)cc1)NC(=O)[C@@H](CC(C)C)NC(=O)[C@H](NC(=O)[C@@H](CS)NC(=O)CNC(=O)[C@@H](CCC(=O)O)NC(=O)[C@@H](CCCNC(=N)N)NC(=O)CNC(=O)CN)C(C)C)C(=O)N[C@H](C)C(=O)N[C@H](CCC(=O)O)C(=O)N[C@@H](C(=O)NCC(=O)NCC(=O)O)C(C)C` [RI-CT], the “inhibition of InsB:9-23 binding to HLA-DQ8 (in words)” value in data set [1] (D-peptides screened at 10 μM, recombinant HLA-DQ8) was “significant inhibition”. Further, in data set [1] (serially diluted to 0.5 μM, FIG. 3D), the “dose dependence of the inhibition of InsB:9-23 binding to HLADQ8” value is “dose-dependent”. The “inhibition of the binding of InsB:9-23 to DQ8 expressed on BSM cells (in words)” value in data set [2] was “inhibits the binding”. The “blocking T cell activation ex vivo to GAD65 (IL-2, IFNγ production)” value in data set [3] is “some activity”. Further, in data set [4] (iv, 10 mg/kg), the clearance came to 27 mL/min/kg and the half-life is 7.46 h. Further, in data set [4] (sc, 10 mg/kg), the AUC(0-inf) came out at 4140 ng·h/mL, the highest concentration (Cmax) came out at 5120 ng/mL, the time to peak (Tmax) was determined as 0.77 h and the bioavailability stood at 47%. Further, the half-life in data set [4] (sc, 10 mg/kg) is 6.02 h. In data set [4] (IV, single dose of 10 mg/kg, whole blood, read-out: volume of distribution), the Vd was found to be 6.9 L/kg.
